Data published in US10364263B2, “Cyclic phosphates and cyclic phosphoramidates for the treatment of neurologic disorders” (Retrophin, Inc., priority 2015, dated 2019).

Assays:
[1] = test system: PANK2 silenced human neuroblastoma IMR32 cells (PANK2−/−); assay: Coenzyme A assay in PANK2 silenced cells (LC-MS quantification of free CoA); format: cell-based; settings: compound added twice (24 h + 24 h), relative to 0.1% DMSO controls
In short: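 PANK2 shRNA-silenced IMR32 neuroblastoma cells were treated with compound (0.1% DMSO) for 24 h, then re-dosed with fresh compound for a further 24 h at 37 °C. TFA extracts of 1×10^6 cells were assayed for free CoA by LC-MS/MS (MRM 768.1→261.6/136.1). Results are given as fold change versus DMSO controls.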

[2] = Stability in mouse plasma; format: in vitro ADME
Description: (§1) Compounds and positive control samples were dissolved in 100% DMSO at 3 mM. To investigate the stability of the test compounds in plasma, samples were made by diluting test compounds into plasma from the stock solutions to obtain a test compound concentration of 3 μM (0.1% DMSO). Before addition of a test compound, 990 μl of plasma were preincubated at 37° C. for 5 min in eppendorf. After addition of a test compound, 70 μl for each time point were transferred to a 96-deepwell plate, previously warmed at 37° C. in a DUBNOFF water bath. Each compound was tested at five time points, in duplicate (10, 20, 30, 40 and 60 min). At each time point, an aliquot of 50 μl was taken and transferred to a new 96-deepwell plate, and the reaction was stopped with 200 μl of 100% acetonitrile containing 0.1% formic acid and the appropriate internal standard. Then samples were centrifuged at 1100×g for 30 min at +4° C. and supernatants were transferred to a new 96-deepwell plate. Samples were evaporated under N2 and reconstituted in H2O/ACN 0.1% Formic Acid (98:2). Analysis was performed without a calibration curve (Acquity UPLC-Waters; SciexAPI4000). Time 0 was obtained by adding acetonitrile before addition of the test compound.

[3] = Stability in human plasma; format: in vitro ADME; settings: 37° C.; for t1/2, Human Plasma, Diastereoisomer B: 3 μM
Description: as §1

[4] = human, plasma, Diastereoisomer A (upfield shift in 31P NMR), read-out: t1/2, Human Plasma, Diastereoisomer A (converted)
[5] = human, plasma, Diastereoisomer B, read-out: t1/2, Human Plasma, Diastereoisomer B (converted)
[6] = Diastereoisomer A (upfield shift in 31P NMR), 3 μM, 37° C., mouse plasma, read-out: t1/2, Mouse Plasma, Diastereoisomer A
[7] = Diastereoisomer B, 3 μM, 37° C., mouse plasma
[8] = Diastereoisomer A (upfield shift in 31P NMR), read-out: t1/2, Human Plasma, Diastereoisomer A (converted)

Row | Compound | half-life at 3 µM ([2]; mouse, plasma) | half-life at 3 µM [3, 4] | t1/2, Mouse Plasma, Diastereoisomer B ([2]; mouse, plasma, 3 µM) | half-life at 3 µM [3, 5] | PANK2−/− CoA (Fold Increase): fold increase in Coenzyme A (CoA) levels relative to controls [1] | half-life at 3 µM [2, 6] | t1/2, Mouse Plasma, Diastereoisomer B [2, 7] | half-life at 3 µM [3, 8] | t1/2, Human Plasma, Diastereoisomer B ([3]; Diastereoisomer B)
1 | COC(=O)CCNC(=O)[C@@H]1OP(=O)(NCCN2CCOCC2)OCC1(C)C (stereo partly drawn) [compound 126, methyl 3-((4R)-5,5-dimethyl-2-((2-morpholinoethyl)amino)-2-oxido-1,3,2-dioxaphosphinane-4-carboxamido)propanoate] | – | – | – | – | 1.33 Fold Increase | < 9.6 min | <9.6 min | > 60 min | >60 min
2 | COC(=O)CCNC(=O)[C@@H]1OP(=O)(NCCc2ccc(F)cc2)OCC1(C)C (stereo partly drawn) [compound 129, methyl 3-((4R)-2-((4-fluorophenethyl)amino)-5,5-dimethyl-2-oxido-1,3,2-dioxaphosphinane-4-carboxamido)propanoate] | – | – | – | – | 0.9 Fold Increase | < 9.6 min | <9.6 min | > 60 min | >60 min
3 | COC(=O)CCNC(=O)[C@@H]1OP(=O)(OCOC(=O)OC(C)(C)C)OCC1(C)C (stereo partly drawn) [compound 88, methyl 3-((4R)-2-(((tert-butoxycarbonyl)oxy)methoxy)-5,5-dimethyl-2-oxido-1,3,2-dioxaphosphinane-4-carboxamido)propanoate] | < 9.6 min | 42.6 min | <9.6 min | 21.6 min | 2.66 Fold Increase | – | – | – | –
4 | COC(=O)CCNC(=O)[C@@H]1OP(=O)(OCOC(=O)[C@H](CC(C)C)NC(C)=O)OCC1(C)C (stereo partly drawn) [Compound No. 73, (((4R)-4-((3-methoxy-3-oxopropyl)carbamoyl)-5,5-dimethyl-2-oxido-1,3,2-dioxaphosphinan-2-yl)oxy)methyl acetyl-L-leucinate] | < 9.6 min | < 13.8 min | <9.6 min | < 9.6 min | 6.92 Fold Increase | – | – | – | –
5 | CC(C)(C)C(=O)OCO[P@@]1(=O)OCC(C)(C)[C@H](C(=O)NCCC(=O)OCc2cncs2)O1 (single isomer, unassigned) [Compound No. 79] | < 9.6 min | > 60 min | <9.6 min | < 9.6 min | 133.6 Fold Increase | – | – | – | –
6 | CC(C)(C)C(=O)OCO[P@@]1(=O)OCC(C)(C)[C@H](C(=O)NCCC(=O)OCC2CCC(=O)N2)O1 (stereo partly drawn) [Compound No. 2-113, (((2S,4R)-5,5-dimethyl-2-oxido-4-((3-oxo-3-((5-oxopyrrolidin-2-yl)methoxy)propyl)carbamoyl)-1,3,2-dioxaphosphinan-2-yl)oxy)methyl pivalate] | < 9.6 min | 33.6 min | – | – | 7.93 Fold Increase | – | – | – | –

The next lines start with results.

Row | half-life at 3 µM ([2]; mouse, plasma) | half-life at 3 µM [3, 4] | t1/2, Mouse Plasma, Diastereoisomer B ([2]; mouse, plasma, 3 µM) | half-life at 3 µM [3, 5] | Compound | PANK2−/− CoA (Fold Increase): fold increase in Coenzyme A (CoA) levels relative to controls [1] | half-life at 3 µM [2, 6] | t1/2, Mouse Plasma, Diastereoisomer B [2, 7] | half-life at 3 µM [3, 8] | t1/2, Human Plasma, Diastereoisomer B ([3]; Diastereoisomer B)
7 | < 9.6 min | > 60 min | – | – | COC(=O)CCNC(=O)[C@@H]1OP(=O)(N[C@@H](C)C(=O)OCCN2CCOCC2)OCC1(C)C (stereo partly drawn) [compound 27, methyl 3-((4R)-5,5-dimethyl-2-(((S)-1-(2-morpholinoethoxy)-1-oxopropan-2-yl)amino)-2-oxido-1,3,2-dioxaphosphinane-4-carboxamido)propanoate] | 1.49 Fold Increase | – | – | – | –
8 | < 9.6 min | > 60 min | <9.6 min | < 9.6 min | CC(C)(C)C(=O)OCOP1(=O)OCC(C)(C)[C@H](C(=O)NCCC(=O)OCc2ncccn2)O1 (stereo partly drawn) [Compound No. 95, (((4R)-5,5-dimethyl-2-oxido-4-((3-oxo-3-(pyrimidin-2-ylmethoxy)propyl)carbamoyl)-1,3,2-dioxaphosphinan-2-yl)oxy)methyl pivalate] | 54.03 Fold Increase | – | – | – | –
9 | < 9.6 min | > 60 min | <9.6 min | > 60 min | COC(=O)CCNC(=O)[C@@H]1OP(=O)(N[C@H](C)C(=O)OCCc2scnc2C)OCC1(C)C (stereo partly drawn) [compound 32, methyl 3-((4R)-5,5-dimethyl-2-(((R)-1-(2-(4-methylthiazol-5-yl)ethoxy)-1-oxopropan-2-yl)amino)-2-oxido-1,3,2-dioxaphosphinane-4-carboxamido)propanoate] | 1.49 Fold Increase | – | – | – | –
10 | < 9.6 min | > 60 min | <9.6 min | < 9.6 min | COC(=O)CCNC(=O)[C@@H]1OP(=O)(OCOC(=O)C2(C(N)=O)CC2)OCC1(C)C (stereo partly drawn) [Compound No. 83, (((4R)-4-((3-methoxy-3-oxopropyl)carbamoyl)-5,5-dimethyl-2-oxido-1,3,2-dioxaphosphinan-2-yl)oxy)methyl 1-carbamoylcyclopropane-1-carboxylate] | 12.02 Fold Increase | – | – | – | –
11 | – | 57 min | – | – | COC(=O)CCNC(=O)[C@@H]1OP(=O)(N[C@@H](C)C(=O)OCCCc2ccccc2)OCC1(C)C (stereo in doubt) [compound 46, methyl 3-((2R,4R)-5,5-dimethyl-2-oxido-2-(((S)-1-oxo-1-(3-phenylpropoxy)propan-2-yl)amino)-1,3,2-dioxaphosphinane-4-carboxamido)propanoate] | 2.74 Fold Increase | – | – | – | –
12 | – | > 60 min | – | – | COC(=O)CCNC(=O)[C@@H]1O[P@](=O)(N[C@H](C(=O)OCCc2ccccc2)C(C)C)OCC1(C)C [compound 45, phenethyl ((2S,4R)-4-((3-methoxy-3-oxopropyl)carbamoyl)-5,5-dimethyl-2-oxido-1,3,2-dioxaphosphinan-2-yl)-L-valinate] | 1.3 Fold Increase | – | – | – | –
13 | – | > 60 min | – | > 60 min | C[C@H](NP1(=O)OCC(C)(C)[C@H](C(=O)NCCC(=O)OCc2ccncc2)O1)C(=O)OCCc1ccccc1 (stereo partly drawn) [compound 38, phenethyl ((4R)-5,5-dimethyl-2-oxido-4-((3-oxo-3-(pyridin-4-ylmethoxy)propyl)carbamoyl)-1,3,2-dioxaphosphinan-2-yl)-L-alaninate] | 2.76 Fold Increase | – | – | – | –
14 | – | < 9.6 min | – | < 9.6 min | COC(=O)CCNC(=O)[C@@H]1OP(=O)(OCOC(=O)C(C)C)OCC1(C)C (stereo partly drawn) [Compound No. 103, (((4R)-4-((3-methoxy-3-oxopropyl)carbamoyl)-5,5-dimethyl-2-oxido-1,3,2-dioxaphosphinan-2-yl)oxy)methyl isobutyrate] | 105.8 Fold Increase | – | – | – | –
15 | – | > 60 min | – | – | COC(=O)CCNC(=O)[C@@H]1OP(=O)(N[C@@H](C)C(=O)OCCc2ccccc2)OCC1(C)C (stereo in doubt) [compound 48, methyl 3-((2R,4R)-5,5-dimethyl-2-oxido-2-(((S)-1-oxo-1-phenethoxypropan-2-yl)amino)-1,3,2-dioxaphosphinane-4-carboxamido)propanoate] | 2.16 Fold Increase | – | – | – | –
